Patent publication US4619925A, “3-Propenyl cephalosporin derivatives” (priority 1985, dated 1986)
In brackets after ≈: the same amount, converted by molar mass. Where two headings read alike, the source gives them in different places.

Columns and labels:
H. influenzae A20193 = test: In vitro activity against fastidious bacteria; type: cell-based; conditions: Haemophilus influenzae; H. influenzae A20193; ampicillin-sensitive (ABPC-S); read-out: MIC
From the text: (§1) Table 5 contains comparative data for in vitro antibacterial activity against fastidious bacteria.

H. influenzae A21523 = test: In vitro activity against fastidious bacteria; type: cell-based; conditions: Haemophilus influenzae; H. influenzae A21523; ampicillin-sensitive (ABPC-S); read-out: MIC
From the text: as §1

H. influenzae A22157 = test: In vitro activity against fastidious bacteria; type: cell-based; conditions: Haemophilus influenzae, ampicillin-resistant (ABPC-R)
From the text: as §1

H. influenzae A22483 = test: In vitro activity against fastidious bacteria; type: cell-based; conditions: Haemophilus influenzae, A22483
From the text: as §1

H. influenzae A22491 = test: In vitro activity against fastidious bacteria; type: cell-based; conditions: Haemophilus influenzae, ampicillin-resistant (ABPC-R)
From the text: as §1

N. gonorrheae A15112 = test: In vitro activity against fastidious bacteria; type: cell-based; conditions: N. gonorrheae A15112; read-out: MIC
From the text: as §1

N. gonorrheae A20154 = test: In vitro activity against fastidious bacteria; type: cell-based; conditions: N. gonorrheae A20154; read-out: MIC
From the text: as §1

N. gonorrheae A20155 = test: In vitro activity against fastidious bacteria; type: cell-based; conditions: N. gonorrheae A20155; read-out: MIC
From the text: as §1

N. meningitidis A20048 = test: In vitro activity against fastidious bacteria; type: cell-based; conditions: Neisseria meningitidis; N. meningitidis A20048; read-out: MIC
From the text: as §1

N. meningitidis A20049 = test: In vitro activity against fastidious bacteria; type: cell-based; conditions: Neisseria meningitidis; N. meningitidis A20049; read-out: MIC
From the text: as §1

N. meningitidis A21487 = test: In vitro activity against fastidious bacteria; type: cell-based; conditions: Neisseria meningitidis; N. meningitidis A21487; read-out: MIC
From the text: as §1

S. pneumoniae A9585 = test: In vitro activity against fastidious bacteria; type: cell-based; conditions: Streptococcus pneumoniae; S. pneumoniae A9585; read-out: MIC
From the text: as §1

S. pneumoniae Type II = test: In vitro activity against fastidious bacteria; type: cell-based; conditions: Streptococcus pneumoniae; S. pneumoniae Type II; read-out: MIC
From the text: as §1

S. pyogenes A15040 = test: In vitro activity against fastidious bacteria; type: cell-based; conditions: Streptococcus pyogenes; S. pyogenes A15040; read-out: MIC
From the text: as §1

S. pyogenes A20065 = test: In vitro activity against fastidious bacteria; type: cell-based; conditions: Streptococcus pyogenes; S. pyogenes A20065; read-out: MIC
From the text: as §1

S. pyogenes A20201 = test: In vitro activity against fastidious bacteria; type: cell-based; conditions: Streptococcus pyogenes; S. pyogenes A20201; read-out: MIC
From the text: as §1

S. pyogenes A9604 = test: In vitro activity against fastidious bacteria; type: cell-based; conditions: Streptococcus pyogenes; S. pyogenes A9604; read-out: MIC
From the text: as §1

S. pyogenes Dick = test: In vitro activity against fastidious bacteria; type: cell-based; conditions: Streptococcus pyogenes; S. pyogenes Dick; read-out: MIC
From the text: as §1

E. coli Juhl = test: Protective dose for mice infected with lethal inoculum; type: in vivo; conditions: 50% survival after five days
From the text: (§2) The data in Table 2 are results of protective doses (PD50) for mice infected with a lethal inoculum of bacteria. Two different bacteria were employed in the studies, one a Gram-positive organism (S. aureus Smith) and the other a Gram-negative organism (E. coli Juhl). The PD50 is that dose which, when administered to a group of injected mice, results in 50% survival after five days. Normally untreated infected mice die within three days following injection of the lethal inoculum.

S. aureus Smith = test: as above; type: in vivo; conditions: 50% survival after five days
From the text: as §2

Mouse blood levels = test: Mouse blood levels
From the text: Table 3 contains comparative blood level data for mice treated orally and intramuscularly with the hydroxyphenylglycyl derivatives.

Mouse urinary recovery = type: in vivo, mice; conditions: 20 mg/kg
[1] = system: Gn-Ia organisms (Gram-negative bacteria sensitive to ampicillin and cephalothin); test: In vitro activity, agar dilution, group of five strains; type: cell-based
From the text: Each of these groups of organisms is constituted of five individual strains of microorganism. The Gp-Ia organisms are Gram-positive staphylococci which are sensitive to penicillin. The Gp-Ib organisms are Gram-positive staphylococci which are resistant to penicillin and produce penicillinase. The Gn-Ia organisms are Gram-negative bacteria which are sensitive to ampicillin and cephalothin. The Gn-Ib organisms are Gram-negative bacteria which are resistant to ampicillin and cephalothin.

fastidious bacteria = test: In vitro antibacterial activity against fastidious bacteria (overall); type: cell-based
From the text: as §1

[2] = system: Gram-positive bacteria, Gram-negative bacteria and fastidious bacteria; test: Antibacterial activity (summary statement); type: cell-based
[3] = system: S. aureus Smith and E. coli Juhl; test: Protective effect in mice infected with a lethal inoculum (overall); type: in vivo
From the text: as §2

C/C=C\C1=C(C(=O)O)N2C(=O)C(NC(=O)[C@H](N)c3cccc(O)c3)[C@H]2SC1 (stereo partly shown) [BMY-28272, 7-[(D)-2-amino-2-(3-hydroxyphenyl)acetamido]-3-[(Z)-1-propenyl]-3-cephem-4-carboxylic acid]
MIC (H. influenzae A20193): 0.8 µg/mL (≈ 2.05 µM) | MIC (H. influenzae A21523): 0.8 µg/mL (≈ 2.05 µM) | MIC (H. influenzae A22157): 0.4 µg/mL (≈ 1.03 µM) | MIC (H. influenzae A22483): 0.4 µg/mL (≈ 1.03 µM) | MIC (H. influenzae A22491): 0.8 µg/mL (≈ 2.05 µM) | MIC (N. gonorrheae A15112): 0.4 µg/mL (≈ 1.03 µM) | MIC (N. gonorrheae A20154): 0.8 µg/mL (≈ 2.05 µM) | MIC (N. gonorrheae A20155): 0.4 µg/mL (≈ 1.03 µM) | MIC (N. meningitidis A20048): 0.8 µg/mL (≈ 2.05 µM) | MIC (N. meningitidis A20049): 0.8 µg/mL (≈ 2.05 µM) | MIC (N. meningitidis A21487): 0.8 µg/mL (≈ 2.05 µM) | MIC (S. pneumoniae A9585): 0.1 µg/mL (≈ 0.257 µM) | MIC (S. pneumoniae Type II): 0.1 µg/mL (≈ 0.257 µM) | MIC (S. pyogenes A15040): 0.05 µg/mL (≈ 0.128 µM) | MIC (S. pyogenes A20065): 0.05 µg/mL (≈ 0.128 µM) | MIC (S. pyogenes A20201): 0.05 µg/mL (≈ 0.128 µM) | MIC (S. pyogenes A9604): 0.05 µg/mL (≈ 0.128 µM) | MIC (S. pyogenes Dick): 0.05 µg/mL (≈ 0.128 µM) | PD50 (protective dose) (E. coli Juhl; im): 1.9 | PD50 (protective dose) (E. coli Juhl; po): 2.6 | PD50 (protective dose) (S. aureus Smith; im): 0.29 | PD50 (protective dose) (S. aureus Smith; po): 0.17 | AUC relative to BMY-28100 (Mouse blood levels; 20 mg/kg intramuscularly): greater AUC value | T1/2 relative to BMY-28100 (Mouse blood levels; 20 mg/kg intramuscularly): longer T1/2 than BMY-28100 | AUC relative to BMY-28100 (Mouse blood levels; 100 mg/kg orally): greater AUC value | T1/2 relative to BMY-28100 (Mouse blood levels; 100 mg/kg orally): somewhat shorter T1/2 than BMY-28100 | duration of blood levels relative to BMY-28100 (Mouse blood levels; 100 mg/kg orally): longer duration of blood levels | antibiotic concentrations in the bloodstream (Mouse blood levels; following oral administration, summary statement): prolonged antibiotic concentrations in the bloodstream following oral administration | concentration at 10 min (Mouse blood levels; mouse, blood, im, 20 mg/kg): 20000 ng/mL | concentration at 20 min (Mouse blood levels; mouse, blood, im, 20 mg/kg): 17000 ng/mL | concentration at 0.5 h (Mouse blood levels; mouse, blood, im, 20 mg/kg): 17000 ng/mL | concentration at 40 min (Mouse blood levels; mouse, blood, im, 20 mg/kg): 12000 ng/mL | concentration at 50 min (Mouse blood levels; mouse, blood, im, 20 mg/kg): 11000 ng/mL | concentration at 1 h (Mouse blood levels; mouse, blood, im, 20 mg/kg): 9400 ng/mL | concentration at 1.5 h (Mouse blood levels; mouse, blood, im, 20 mg/kg): 4800 ng/mL | concentration at 2 h (Mouse blood levels; mouse, blood, im, 20 mg/kg): 2600 ng/mL | AUC (Mouse blood levels; mouse, blood, im, 20 mg/kg, 20 mg/kg i.m.): 20000 ng·h/mL | half-life (Mouse blood levels; mouse, blood, im, 20 mg/kg, T 1/2, 20 mg/kg i.m.): 36 min | Cmax (Mouse blood levels; mouse, blood, po, 20 mg/kg): 9600 ng/mL | concentration at 0.5 h (Mouse blood levels; mouse, blood, po, 20 mg/kg): 7700 ng/mL | concentration at 1 h (Mouse blood levels; mouse, blood, po, 20 mg/kg): 4200 ng/mL | concentration at 2 h (Mouse blood levels; mouse, blood, po, 20 mg/kg): 1600 ng/mL | concentration at 3 h (Mouse blood levels; mouse, blood, po, 20 mg/kg): 620 ng/mL | concentration at 4 h (Mouse blood levels; mouse, blood, po, 20 mg/kg): 220 ng/mL | concentration at 5 h (Mouse blood levels; mouse, blood, po, 20 mg/kg): 130 ng/mL | concentration at 6 h (Mouse blood levels; mouse, blood, po, 20 mg/kg): 82 ng/mL | AUC (Mouse blood levels; mouse, blood, po, 20 mg/kg, 20 mg/kg p.o.): 9700 ng·h/mL | AUC (Mouse blood levels; mouse, blood, po, 20 mg/kg, 20 mg/kg p.o., another experiment (footnote)): 17000 ng·h/mL | half-life (Mouse blood levels; mouse, blood, po, 20 mg/kg, T 1/2, 20 mg/kg p.o.): 51.6 min | half-life (Mouse blood levels; mouse, blood, po, 20 mg/kg, T 1/2, 20 mg/kg p.o., another experiment (footnote)): 60 min | concentration at 0.5 h (Mouse blood levels; mouse, blood, po, 100 mg/kg): 23000 ng/mL | concentration at 1 h (Mouse blood levels; mouse, blood, po, 100 mg/kg): 22000 ng/mL | concentration at 2 h (Mouse blood levels; mouse, blood, po, 100 mg/kg): 16000 ng/mL | concentration at 3 h (Mouse blood levels; mouse, blood, po, 100 mg/kg): 10000 ng/mL | concentration at 4 h (Mouse blood levels; mouse, blood, po, 100 mg/kg): 6300 ng/mL | concentration at 5 h (Mouse blood levels; mouse, blood, po, 100 mg/kg): 3100 ng/mL | concentration at 6 h (Mouse blood levels; mouse, blood, po, 100 mg/kg): 2800 ng/mL | concentration at 7 h (Mouse blood levels; mouse, blood, po, 100 mg/kg): 2500 ng/mL | AUC (Mouse blood levels; mouse, blood, po, 100 mg/kg, 100 mg/kg p.o.): 71000 ng·h/mL | half-life (Mouse blood levels; mouse, blood, po, 100 mg/kg, T 1/2, 100 mg/kg p.o.): 102 min | total recovery ratio relative to BMY-28100 and cefaclor (Mouse urinary recovery; p.o.): smaller than those of BMY-28100 and cefaclor | rate of excretion relative to BMY-28100 and cefaclor (Mouse urinary recovery; p.o., from the 6-24 hours period): slower than BMY-28100 and cefaclor | dose excreted at 2 h (Mouse urinary recovery; mouse, urine, po, 0-2 hr): 37% | dose excreted at 4 h (Mouse urinary recovery; mouse, urine, po, 2-4 hr): 4.4% | dose excreted at 6 h (Mouse urinary recovery; mouse, urine, po, 4-6 hr): 0.4% | dose excreted at 24 h (Mouse urinary recovery; mouse, urine, po, p.o., 6-24 hr, read-out: Mouse urinary recovery 6-24 hr): 8.7% | dose excreted at 24 h (Mouse urinary recovery; mouse, urine, po, p.o., total, read-out: Mouse urinary recovery Total): 51% | activity relative to cephalexin and cefaclor [1]: more active than cephalexin and slightly better than cefaclor | activity relative to BMY-28100 (fastidious bacteria): almost comparable or better than BMY-28100 | activity relative to cefaclor or cephalexin (fastidious bacteria): much better than cefaclor or cephalexin | activity against Gram-positive bacteria [2]: strong activity against Gram-positive bacteria | spectrum of activity against Gram-negative and fastidious bacteria relative to cephalexin and cefaclor [2]: improved spectrum of activity against Gram-negative bacteria and fastidious bacteria relative to cephalexin and cefaclor | effectiveness in vivo [3]: effectiveness of BMY-28272 in vivo is confirmed
